Results on two compounds are retold here after patent publication US20070265211A1, “Novel composition and method effective in inhibiting the atherogenic process” (priority 2006, published 2007).

The subject of experiment [1] is vascular smooth muscle cells (VSMC) from guinea-pig aorta. The note with it: 0.5-2.0 mM ascorbate; direct and matrix-mediated effects; cited from earlier work.
In experiment [2] the test system is Human aortic smooth muscle cells. Nature of the experiment: SMC proliferation by [3H]-thymidine incorporation into cellular DNA. The class given is cell-based. The note with it: physiologically relevant concentration. (In general: Incorporation of labelled thymidine or its analogues reports DNA synthesis.)
Description: Human aortic smooth muscle cells (SMC, obtained from Clonetics) were cultured in DMEM (Dulbecco's modified Eagle's medium), supplemented with 10% fetal bovine serum, penicillin (100 μg/ml) and streptomycin (100 μg/ml) at 37° C. in a humidified atmosphere containing 5% CO2, and were split 1:3 to 1:5 upon reaching the confluence. SMC at passages 5-8 were used in experiments. […] SMC proliferation was assayed by [3H]-thymidine incorporation into cellular genetic material. Cells were plated in 24-well plates at a density of 10,000 cells per cm^2 in 0.5 ml of DMEM supplemented with 2% FBS. The attached cells were supplied every 24 hours with fresh growth medium plus additions, as specified in the protocols. Test agents included the nutrient mixture and individual components. […] Cell proliferation was measured 3 days later by the addition of 1 pCi/ml [3H]-thymidine to the cell culture for the last 4 hours of the experiment. […] Samples were mixed with scintillation fluid and counted using a liquid scintillation counter (model 6500 LS, Beckman Instruments, USA). Cellular DNA-incorporated radioactivity was expressed as d/min per well. In some wells cells were stained with Hematoxylin/Eosin and cell nucleus were counted under microscope in standard way chosen views covering total 65% of the well area. Cell counting data expressed as cell number per well.

Consider `O=C1O[C@H]([C@@H](O)CO)C(O)=C1O` [ascorbate, ascorbic acid], for which the “Proliferation of VSMC from guinea-pig aorta” value in experiment [1] is “dose-dependent decreased proliferation”.

For the compound `O=C(O[C@@H]1Cc2c(O)cc(O)cc2O[C@@H]1c1cc(O)c(O)c(O)c1)c1cc(O)c(O)c(O)c1` [epigallocatechin gallate], the “Cultured human aortic SMC growth rate (rate of cellular DNA synthesis)” value in experiment [2] is on record as “significantly reduced”.
